{"source": "patent US6984727B1", "about": "“Gene involved in brassinosteroid responses” (National Institute of Agrobiological Science, priority 2000, dated 2006)", "system": "second leaf of rice", "assay": "leaf blade bend response test (brassinosteroid response test)", "type": "in vivo", "conditions": "cut second leaf germinated in the dark, immersed in 1 ng/ml solution for 48 hours", "from_the_text": "The present gene was deduced to be a factor involved in the signal transduction system for plant hormones, taking note of the facts that the present gene was expressed in all plant bodies and that pleiotropic influences resulted from destroying this gene, as well as the possibility that the gene might be a factor involved in the signal transduction system. Presuming that the signal transduction system is that for brassinosteroid hormone in view of the resultant upright form, the inventors performed a leaf blade bend response test as a brassinosteroid response test, by using brassinolide, which is one kind of brassinosteroid hormone. The second leaf of rice which was allowed to germinate in the dark was cut off, and immersed in a 1 ng/ml of brassinosteroid solution for 48 hours."}
{"smiles": "CC(C)[C@H](C)[C@@H](O)[C@H](O)[C@@H](C)[C@H]1CC[C@H]2[C@@H]3COC(=O)[C@H]4C[C@H](O)[C@H](O)C[C@]4(C)[C@H]3CC[C@]12C", "note": "[brassinolide]", "values": [{"measurement": "bending of the leaf blades and leaf sheath junctions", "setting": "Tos17-insertion mutant individuals (A0369, NC6148)", "value": "showed little bending thereof"}, {"measurement": "bending of the leaf blades and leaf sheath junctions", "setting": "wild type individuals (Akitakomachi, Nipponbare)", "value": "showed bending of the leaf blades and leaf sheath junctions"}]}
